Assay results reported in patent US4399132A, “7-Beta-[alpha-syn-methoxyimino-alpha-(2-aminothiazol-4-yl)-aceta mido]-3-[(1,2,3-thiadiazol-5-ylthio)methyl]-3-cephem-4-carboxylic acid and C1 -C6 alkyl derivatives thereof” (American Cyanamid Company, priority 1981, dated 1983).
In brackets after ≈: the same amount, converted by molar mass. Where two headings read alike, the source gives them in different places. Blank lines part the entries; values can stand above or below the compound they belong to.

Assays:
Test in all cases: Mueller-Hinton agar dilution method (MIC)
Assay type in all cases: cell-based
Escherichia coli = settings: read-out: Minimal Inhibitory Concentration
Salmonella (arizona) = settings: strain QHC-77-3, Table III, read-out: Minimal Inhibitory Concentration
Serratia marcescens = settings: read-out: Minimal Inhibitory Concentration
Proteus morganii = settings: Morganella morganii, strain K-79-25; Table III; read-out: Minimal Inhibitory Concentration
Enterococcus sp. = settings: Table III
Proteus rettgeri = settings: Providencia rettgeri; strain N-76-1; Table III; read-out: Minimal Inhibitory Concentration
Enterobacter aerogenes = settings: Klebsiella aerogenes; strain STFD-79-14; Table III; read-out: Minimal Inhibitory Concentration
Salmonella sp. = settings: strain SSC-79-57, Table III, read-out: Minimal Inhibitory Concentration
Description: (§1) The results appear in Tables I, II, and III.

Micrococcus luteus = settings: strain PCI 1001, Table III, read-out: Minimal Inhibitory Concentration
Description: as §1

Acinetobacter sp. = settings: read-out: Minimal Inhibitory Concentration
Klebsiella pneumoniae = settings: Table III
Pseudomonas aeruginosa = settings: read-out: Minimal Inhibitory Concentration
Staphylococcus aureus = settings: read-out: Minimal Inhibitory Concentration
Enterobacter cloacae = settings: strain K-79-16, Table III, read-out: Minimal Inhibitory Concentration
[1] = beta-lactamase negative, strain SSC 79-3, Table II
[2] = beta-lactamase negative, strain SSC 79-5, Table II
[3] = beta-lactamase negative, strain SSC 79-7, Table II
[4] = beta-lactamase negative, strain SSC 79-9, Table II
[5] = beta-lactamase negative, strain SSC 79-10, Table II
[6] = beta-lactamase negative, strain SSC 79-11, Table II
[7] = beta-lactamase negative, strain SSC 79-14, Table II
[8] = beta-lactamase negative, strain SSC 79-15, Table II
[9] = beta-lactamase negative, strain SSC 79-17, Table II
[10] = beta-lactamase positive, strain SSC 79-24, Table II
[11] = beta-lactamase positive, strain SSC 79-27, Table II
[12] = beta-lactamase positive, strain SSC 79-28, Table II
[13] = beta-lactamase positive, strain SSC 79-36, Table II
[14] = beta-lactamase positive, strain SSC 79-38, Table II
[15] = beta-lactamase positive, strain SSC 79-39, Table II
[16] = beta-lactamase positive, strain SSC 79-41, Table II
[17] = beta-lactamase positive, strain SSC 79-44, Table II
[18] = beta-lactamase positive, strain SSC 79-47, Table II

SMILES: CO/N=C(\C(=O)N[C@@H]1C(=O)N2C(C(=O)O)=C(CSc3snnc3C)CS[C@H]12)c1csc(N)n1 [Compound Ib(i), 7-β-[α-syn-methoxyimino-α-(2-aminothiazol-4-yl)acetamido]-3-[(1,2,3-thiadiazol-4-methyl-5-ylthio)methyl]-3-cephem-4-carboxylic acid]
- MIC (Escherichia coli; ATCC25922, strain ATCC 25922, Table III): ≤ 0.03 µg/mL
- MIC (Escherichia coli; strain #311, Table III): 0.06 µg/mL (≈ 0.114 µM)
- MIC (Escherichia coli; strain ESS 22-31, Table III): ≤ 0.03 µg/mL
- MIC (Escherichia coli; strain STFD-79-20, Table III): ≤ 0.03 µg/mL
- MIC (Salmonella (arizona)): 0.06 µg/mL (≈ 0.114 µM)
- MIC (Serratia marcescens; strain QHC-77-2, Table III): 2 µg/mL (≈ 3.79 µM)
- MIC (Serratia marcescens; strain TUL-78-15, Table III): 2 µg/mL (≈ 3.79 µM)
- MIC (Proteus morganii): ≤ 0.03 µg/mL
- MIC (Enterococcus sp.; Enterococcus, strain OSU-75-1, read-out: Minimal Inhibitory Concentration): 8 µg/mL (≈ 15.2 µM)
- Minimal Inhibitory Concentration (Enterococcus sp.; strain SM-77-15): 8 µg/mL
- MIC (Proteus rettgeri): ≤ 0.03 µg/mL
- MIC (Enterobacter aerogenes): 0.12 µg/mL (≈ 0.227 µM)
- MIC (Salmonella sp.): 1 µg/mL (≈ 1.9 µM)
- MIC (Micrococcus luteus): ≤ 0.03 µg/mL
- MIC (Acinetobacter sp.; strain K-77-1, Table III): 4 µg/mL (≈ 7.58 µM)
- MIC (Acinetobacter sp.; strain STFD-79-17, Table III): 32 µg/mL (≈ 60.6 µM)
- MIC (Klebsiella pneumoniae; Klebsiella pneumoniae, strain STFD-79-6, read-out: Minimal Inhibitory Concentration): ≤ 0.03 µg/mL
- Minimal Inhibitory Concentration (Klebsiella pneumoniae; strain AD): ≤ .03 µg/mL
- Minimal Inhibitory Concentration (Klebsiella pneumoniae; strain SSC-78-1): ≤ .03 µg/mL
- MIC (Pseudomonas aeruginosa; ATCC27853, strain ATCC 27853, Table III): 64 µg/mL (≈ 121 µM)
- MIC (Pseudomonas aeruginosa; strain 12-4-4, Table III): 64 µg/mL (≈ 121 µM)
- MIC (Pseudomonas aeruginosa; strain SSC-78-13, Table III): 64 µg/mL (≈ 121 µM)
- MIC (Staphylococcus aureus; strain FU-79-19-2, Table III): 0.5 µg/mL (≈ 0.948 µM)
- MIC (Staphylococcus aureus; strain SSC-79-18, Table III): 0.25 µg/mL (≈ 0.474 µM)
- MIC (Staphylococcus aureus; strain SSC-80-15, Table III): 1 µg/mL (≈ 1.9 µM)
- MIC (Staphylococcus aureus; strain Smith, Table III): 0.25 µg/mL (≈ 0.474 µM)
- MIC (Enterobacter cloacae): 0.25 µg/mL (≈ 0.474 µM)

- MIC (Staphylococcus aureus; [1]): 2 µg/mL (≈ 3.84 µM)
- MIC (Staphylococcus aureus; [2]): 8 µg/mL (≈ 15.4 µM)
- MIC (Staphylococcus aureus; [3]): 2 µg/mL (≈ 3.84 µM)
- MIC (Staphylococcus aureus; [4]): 2 µg/mL (≈ 3.84 µM)
- MIC (Staphylococcus aureus; [5]): 2 µg/mL (≈ 3.84 µM)
- MIC (Staphylococcus aureus; [6]): 2 µg/mL (≈ 3.84 µM)
- MIC (Staphylococcus aureus; [7]): 4 µg/mL (≈ 7.69 µM)
- MIC (Staphylococcus aureus; [8]): 8 µg/mL (≈ 15.4 µM)
- MIC (Staphylococcus aureus; [9]): 4 µg/mL (≈ 7.69 µM)
- MIC (Staphylococcus aureus; [10]): 32 µg/mL (≈ 61.5 µM)
- MIC (Staphylococcus aureus; [11]): 4 µg/mL (≈ 7.69 µM)
- MIC (Staphylococcus aureus; [12]): 4 µg/mL (≈ 7.69 µM)
- MIC (Staphylococcus aureus; [13]): 4 µg/mL (≈ 7.69 µM)
- MIC (Staphylococcus aureus; [14]): 2 µg/mL (≈ 3.84 µM)
- MIC (Staphylococcus aureus; [15]): 4 µg/mL (≈ 7.69 µM)
- MIC (Staphylococcus aureus; [16]): 4 µg/mL (≈ 7.69 µM)
- MIC (Staphylococcus aureus; [17]): 2 µg/mL (≈ 3.84 µM)
- MIC (Staphylococcus aureus; [18]): 4 µg/mL (≈ 7.69 µM)
SMILES: CO[C@@]1(NC(=O)C(C(=O)O)c2ccc(O)cc2)C(=O)N2C(C(=O)O)=C(CSc3nnnn3C)CO[C@@H]21 (stereo partly drawn) [Compound V, Moxalactam]

- MIC (Staphylococcus aureus; [1]): 2 µg/mL (≈ 4.68 µM)
- MIC (Staphylococcus aureus; [2]): 2 µg/mL (≈ 4.68 µM)
- MIC (Staphylococcus aureus; [3]): 1 µg/mL (≈ 2.34 µM)
- MIC (Staphylococcus aureus; [4]): 1 µg/mL (≈ 2.34 µM)
- MIC (Staphylococcus aureus; [5]): 1 µg/mL (≈ 2.34 µM)
- MIC (Staphylococcus aureus; [6]): 1 µg/mL (≈ 2.34 µM)
- MIC (Staphylococcus aureus; [7]): 2 µg/mL (≈ 4.68 µM)
- MIC (Staphylococcus aureus; [8]): 4 µg/mL (≈ 9.36 µM)
- MIC (Staphylococcus aureus; [9]): 2 µg/mL (≈ 4.68 µM)
- MIC (Staphylococcus aureus; [10]): 16 µg/mL (≈ 37.4 µM)
- MIC (Staphylococcus aureus; [11]): 2 µg/mL (≈ 4.68 µM)
- MIC (Staphylococcus aureus; [12]): 2 µg/mL (≈ 4.68 µM)
- MIC (Staphylococcus aureus; [13]): 2 µg/mL (≈ 4.68 µM)
- MIC (Staphylococcus aureus; [14]): 2 µg/mL (≈ 4.68 µM)
- MIC (Staphylococcus aureus; [15]): 4 µg/mL (≈ 9.36 µM)
- MIC (Staphylococcus aureus; [16]): 4 µg/mL (≈ 9.36 µM)
- MIC (Staphylococcus aureus; [17]): 2 µg/mL (≈ 4.68 µM)
- MIC (Staphylococcus aureus; [18]): 2 µg/mL (≈ 4.68 µM)
SMILES: CO[C@@]1(NC(=O)Cc2cccs2)C(=O)N2C(C(=O)O)=C(COC(N)=O)CS[C@@H]21 [Compound VI, Cefoxitin]

- MIC (Staphylococcus aureus; [1]): 0.5 µg/mL (≈ 0.774 µM)
- MIC (Staphylococcus aureus; [2]): 2 µg/mL (≈ 3.1 µM)
- MIC (Staphylococcus aureus; [3]): 0.5 µg/mL (≈ 0.774 µM)
- MIC (Staphylococcus aureus; [4]): 0.5 µg/mL (≈ 0.774 µM)
- MIC (Staphylococcus aureus; [5]): 0.5 µg/mL (≈ 0.774 µM)
- MIC (Staphylococcus aureus; [6]): 0.25 µg/mL (≈ 0.387 µM)
- MIC (Staphylococcus aureus; [7]): 2 µg/mL (≈ 3.1 µM)
- MIC (Staphylococcus aureus; [8]): 2 µg/mL (≈ 3.1 µM)
- MIC (Staphylococcus aureus; [9]): 1 µg/mL (≈ 1.55 µM)
- MIC (Staphylococcus aureus; [10]): 128 µg/mL (≈ 198 µM)
- MIC (Staphylococcus aureus; [11]): 1 µg/mL (≈ 1.55 µM)
- MIC (Staphylococcus aureus; [12]): 2 µg/mL (≈ 3.1 µM)
- MIC (Staphylococcus aureus; [13]): 2 µg/mL (≈ 3.1 µM)
- MIC (Staphylococcus aureus; [14]): 1 µg/mL (≈ 1.55 µM)
- MIC (Staphylococcus aureus; [15]): 2 µg/mL (≈ 3.1 µM)
- MIC (Staphylococcus aureus; [16]): 2 µg/mL (≈ 3.1 µM)
- MIC (Staphylococcus aureus; [17]): 1 µg/mL (≈ 1.55 µM)
- MIC (Staphylococcus aureus; [18]): 2 µg/mL (≈ 3.1 µM)
SMILES: CCN1CCN(C(=O)N[C@@H](C(=O)N[C@@H]2C(=O)N3C(C(=O)O)=C(CSc4nnnn4C)CS[C@H]23)c2ccc(O)cc2)C(=O)C1=O [Compound VII, Cefaperazone]
